Laboratory results published in US6461997B1, “Triazole sulfones having herbicidal activity” (Monsanto Technology LLC, priority 1999, dated 2002).

Columns and labels:
SETFA (giant foxtail) = experiment: Pre-plant incorporated (PPI) herbicidal activity, warm season; type: in vivo, Setaria faberi; settings: for Percent inhibition SETFA: PPI application
Summary of the method: (§1)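 Spray-treated, thoroughly mixed cover soil was laid over seeds; untreated soil served as control cover. Day/night temperatures: 30/21° C warm season, 18/13° C cool season. Efficacy recorded ~14 days after planting as percent inhibition.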

SORVU (shattercane) = experiment: as above; type: in vivo, Sorghum vulgare; settings: for Percent inhibition SORVU: PPI application
Summary of the method: as §1

[1] = tested on: BRAPP (broadleaf signalgrass); experiment: as above; type: in vivo, Brachiaria platyphylla; settings: for Percent inhibition BRAPP: PPI application
Summary of the method: as §1

[2] = tested on: GALAP (catchweed bedstraw); experiment: Pre-plant incorporated (PPI) herbicidal activity, cool season; type: in vivo, Galium aparine; settings: for Percent inhibition GALAP: weed, PPI application
Summary of the method: as §1

SINAR (wild mustard) = experiment: as above; type: in vivo, Sinapis arvensis; settings: for Percent inhibition SINAR: weed, PPI application
Summary of the method: as §1

SASKR (russian thistle) = experiment: as above; type: in vivo, Salsola kali; settings: for Percent inhibition SASKR: weed, PPI application
Summary of the method: as §1

STEME (common chickweed) = experiment: as above; type: in vivo, Stellaria media; settings: for Percent inhibition STEME: weed, PPI application
Summary of the method: as §1

[3] = tested on: LAMPU (purple deadnettle); experiment: as above; type: in vivo, Lamium purpureum; settings: for Percent inhibition LAMPU: weed, PPI application
Summary of the method: as §1

SETVI (green foxtail) = experiment: as above; type: in vivo, Setaria viridis; settings: for Percent inhibition SETVI: weed, PPI application
Summary of the method: as §1

[4] = tested on: AGRRE (quackgrass (seedling)); experiment: as above; type: in vivo, Elymus repens; settings: for Percent inhibition AGRRE: weed, PPI application
Summary of the method: as §1

corn (ZEAMX) = experiment: Selectivity test, PPI, warm season crop; type: in vivo, Zea mays; settings: PPI application
Summary of the method: (§2)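 Pre-plant incorporated: compound in organic solvent sprayed onto cover soil, mixed and laid over seeds; untreated soil for controls. Greenhouse after treatment: warm season 30/21° C., cool season 18/13° C. day/night. Percent inhibition versus untreated plants scored about 14 days after planting.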

wheat (TRZAW) = experiment: Selectivity test, PPI, cool season crop; type: in vivo, Triticum aestivum; settings: PPI application
Summary of the method: as §2

barley (HORVX) = experiment: Selectivity test, PPI, cool season crop; type: in vivo, Hordeunm vulgare; settings: PPI application
Summary of the method: as §2

[5] = pre-plant incorporated, lowest tested rate with 80% or greater inhibition, about 14 days

Compound: CCN(CC)C(=O)n1cnc(S(=O)(=O)C(F)(F)SCCOC)n1 [Example 13]
- Percent inhibition SETFA (SETFA (giant foxtail); 10 g/ha): 0%
- Percent inhibition SETFA (SETFA (giant foxtail); 30 g/ha): 99%
- Percent inhibition SETFA (SETFA (giant foxtail); 100 g/ha): 90%
- Percent inhibition SETFA (SETFA (giant foxtail); 300 g/ha): 100%
- Percent inhibition SETFA (SETFA (giant foxtail); 900 g/ha): 100%
- PPI activity GR80, SETFA (SETFA (giant foxtail); [5]): 30 g/ha
- Percent inhibition SORVU (SORVU (shattercane); 10 g/ha): 0%
- Percent inhibition SORVU (SORVU (shattercane); 30 g/ha): 50%
- Percent inhibition SORVU (SORVU (shattercane); 100 g/ha): 90%
- Percent inhibition SORVU (SORVU (shattercane); 300 g/ha): 100%
- Percent inhibition SORVU (SORVU (shattercane); 900 g/ha): 100%
- PPI activity GR80, SORVU (SORVU (shattercane); [5]): 300 g/ha
- Percent inhibition BRAPP ([1]; 10 g/ha): 40%
- Percent inhibition BRAPP ([1]; 30 g/ha): 80%
- Percent inhibition BRAPP ([1]; 100 g/ha): 95%
- Percent inhibition BRAPP ([1]; 300 g/ha): 99%
- Percent inhibition BRAPP ([1]; 900 g/ha): 100%
- PPI activity GR80, BRAPP [1, 5]: 100 g/ha
- PPI activity GR80, GALAP [2, 5]: 300 g/ha
- Percent inhibition GALAP ([2]; 10 g/ha): 0%
- Percent inhibition GALAP ([2]; 30 g/ha): 30%
- Percent inhibition GALAP ([2]; 100 g/ha): 0%
- Percent inhibition GALAP ([2]; 300 g/ha): 40%
- Percent inhibition GALAP ([2]; 900 g/ha): 100%
- PPI activity GR80, SINAR (SINAR (wild mustard); [5]): [empty]
- Percent inhibition SINAR (SINAR (wild mustard); 10 g/ha): 70%
- Percent inhibition SINAR (SINAR (wild mustard); 30 g/ha): 100%
- Percent inhibition SINAR (SINAR (wild mustard); 100 g/ha): 100%
- Percent inhibition SINAR (SINAR (wild mustard); 900 g/ha): 100%
- PPI activity GR80, SASKR (SASKR (russian thistle); [5]): 300 g/ha
- Percent inhibition SASKR (SASKR (russian thistle); 10 g/ha): 20%
- Percent inhibition SASKR (SASKR (russian thistle); 30 g/ha): 30%
- Percent inhibition SASKR (SASKR (russian thistle); 100 g/ha): 80%
- Percent inhibition SASKR (SASKR (russian thistle); 300 g/ha): 100%
- Percent inhibition SASKR (SASKR (russian thistle); 900 g/ha): 100%
- PPI activity GR80, STEME (STEME (common chickweed); [5]): * (activity observed, at least at highest rate, but <80% inhibition)
- Percent inhibition STEME (STEME (common chickweed); 10 g/ha): 0%
- Percent inhibition STEME (STEME (common chickweed); 30 g/ha): 0%
- Percent inhibition STEME (STEME (common chickweed); 100 g/ha): 20%
- Percent inhibition STEME (STEME (common chickweed); 300 g/ha): 100%
- Percent inhibition STEME (STEME (common chickweed); 900 g/ha): 99%
- PPI activity GR80, LAMPU [3, 5]: 30 g/ha
- Percent inhibition LAMPU ([3]; 10 g/ha): 0%
- Percent inhibition LAMPU ([3]; 100 g/ha): 0%
- Percent inhibition LAMPU ([3]; 300 g/ha): 0%
- Percent inhibition LAMPU ([3]; 900 g/ha): 90%
- PPI activity GR80, SETVI (SETVI (green foxtail); [5]): 100 g/ha
- Percent inhibition SETVI (SETVI (green foxtail); 10 g/ha): 30%
- Percent inhibition SETVI (SETVI (green foxtail); 30 g/ha): 95%
- Percent inhibition SETVI (SETVI (green foxtail); 100 g/ha): 100%
- Percent inhibition SETVI (SETVI (green foxtail); 300 g/ha): 100%
- Percent inhibition SETVI (SETVI (green foxtail); 900 g/ha): 100%
- PPI activity GR80, AGRRE [4, 5]: * (activity observed, at least at highest rate, but <80% inhibition)
- Percent inhibition AGRRE ([4]; 10 g/ha): 0%
- Percent inhibition AGRRE ([4]; 30 g/ha): 0%
- Percent inhibition AGRRE ([4]; 100 g/ha): 20%
- Percent inhibition AGRRE ([4]; 300 g/ha): 40%
- Percent inhibition AGRRE ([4]; 900 g/ha): 60%
- Percent inhibition ZEAMX (corn (ZEAMX); 10 g/ha): 0%
- Percent inhibition ZEAMX (corn (ZEAMX); 30 g/ha): 0%
- Percent inhibition ZEAMX (corn (ZEAMX); 100 g/ha): 5%
- Percent inhibition ZEAMX (corn (ZEAMX); 300 g/ha): 10%
- Percent inhibition ZEAMX (corn (ZEAMX); 900 g/ha): 50%
- Percent inhibition TRZAW (wheat (TRZAW); 10 g/ha): 0%
- Percent inhibition TRZAW (wheat (TRZAW); 30 g/ha): 0%
- Percent inhibition TRZAW (wheat (TRZAW); 100 g/ha): 20%
- Percent inhibition TRZAW (wheat (TRZAW); 300 g/ha): 20%
- Percent inhibition TRZAW (wheat (TRZAW); 900 g/ha): 30%
- Percent inhibition HORVX (barley (HORVX); 10 g/ha): 0%
- Percent inhibition HORVX (barley (HORVX); 30 g/ha): 0%
- Percent inhibition HORVX (barley (HORVX); 100 g/ha): 20%
- Percent inhibition HORVX (barley (HORVX); 300 g/ha): 10%
- Percent inhibition HORVX (barley (HORVX); 900 g/ha): 40%
